Values quoted from earlier work as cited in doi:10.1101/2025.05.01.651722v1 (bioRxiv, 2025).
No end group written: not given here.

Settings: solubility maintained by hydrophilic arginine tail

## H-RLTRKRGLKLAGGGGGRRRRRRRRR [ApoB^11]
  hydrophobicity of the peptide: highly hydrophobic
